Source: patent US20080108645A1, “Dihydrotetrabenazines And Pharmaceutical Compositions Containing Them” (CAMBRIDGE LABORATORIES, (IRELAND), LTD., priority 2004, published 2008)
pIC50: −log10 of the molar value.

Legend:
VMAT1 = target: T1, VMAT1 (Rattus norvegicus, UniProt Q01818); experiment: VMAT1 functional assay: [3H] dopamine uptake, rat adrenal chromaffin cell vesicles in presence of 10 μM tetrabenazine; type: biochemical; conditions: for pIC50: in the presence of 10 μM Tetrabenazine, read-out: IC50, inhibition of [3H] dopamine uptake
T1 construct: The vesicular fraction was isolated in an identical fashion to that described for the brain preparation; from tissue; host or cells: SD rat adrenal medulla chromaffin cells, vesicular fraction
T1 sequence (Q01818 1-521): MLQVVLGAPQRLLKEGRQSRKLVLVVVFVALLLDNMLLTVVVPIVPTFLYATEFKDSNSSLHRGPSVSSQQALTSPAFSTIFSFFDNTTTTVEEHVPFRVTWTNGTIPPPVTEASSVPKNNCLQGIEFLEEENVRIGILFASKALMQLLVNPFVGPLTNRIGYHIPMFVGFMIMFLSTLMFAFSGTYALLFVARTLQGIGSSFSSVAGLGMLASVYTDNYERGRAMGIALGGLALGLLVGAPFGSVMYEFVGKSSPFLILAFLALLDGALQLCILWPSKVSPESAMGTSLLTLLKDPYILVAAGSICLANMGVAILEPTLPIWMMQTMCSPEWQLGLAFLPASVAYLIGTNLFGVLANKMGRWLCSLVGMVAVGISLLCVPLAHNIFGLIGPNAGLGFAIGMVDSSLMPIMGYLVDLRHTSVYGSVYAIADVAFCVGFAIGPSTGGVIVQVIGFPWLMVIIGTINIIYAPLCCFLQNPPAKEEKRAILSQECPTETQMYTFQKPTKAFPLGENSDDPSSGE
Protocol: Thus, adrenal glands were dissected in ice cold PBS, the capsule and cortex of the glands removed and the remaining medullae were minced. After multiple washes with PBS, the tissue was incubated with Ca2+-free collagenase IA solution (250 U/ml) for 30 minutes at 30° C. with gentle stirring. The digested tissue was rinsed three times and the dissociated cells were centrifuged at 3000 rpm to form a pellet, which was resuspended in PBS. The vesicular fraction was isolated in an identical fashion to that described for the brain preparation.
100 μl (approx. 2.5 μg protein) of synaptic vesicles were preincubated with increasing concentrations of test compound (prepared as previously described for binding assay) for 30 minutes (concentration range 10^−9 M-10^−4 M). The assay was performed for 3 minutes at 30° C. in the assay buffer (25 mM HEPES, 100 mM potassium tartrate, 1.7 mM ascorbic acid, 0.05 mM EGTA, 0.1 mM EDTA, 2 mM ATP-Mg^2+, pH 7.5), in the presence of [^3H] dopamine (30 nM final concentration). [^3H] dopamine uptake was measured in the presence of 10 μM tetrabenazine (selectively blocks VMAT2 at this concentration). Non-specific uptake was determined by measuring vesicular [^3H] dopamine uptake at 4° C. The reaction was then terminated by addition of ice-cold buffer assay buffer pH 7.5, containing 2 mM MgSO4 instead of 2 mM ATP-Mg^2+, and rapid filtration achieved through Whatman filters soaked in 0.5% polyethyleneimine. The filters were washed three times with cold buffer using a Brandel Harvester and the radioactivity trapped on the filters was counted using a liquid scintillation counter.

Adrenergic α2B Receptor = target: T2, Adrenergic α2B Receptor (Homo sapiens, UniProt P18089); experiment: Adrenergic α2B receptor radioligand binding; conditions: 10 μM; 2.5 nM [3H] Rauwolscine
T2 construct: expressed in transfected cells; host or cells: CHO-K1 cells
T2 sequence (P18089 1-450): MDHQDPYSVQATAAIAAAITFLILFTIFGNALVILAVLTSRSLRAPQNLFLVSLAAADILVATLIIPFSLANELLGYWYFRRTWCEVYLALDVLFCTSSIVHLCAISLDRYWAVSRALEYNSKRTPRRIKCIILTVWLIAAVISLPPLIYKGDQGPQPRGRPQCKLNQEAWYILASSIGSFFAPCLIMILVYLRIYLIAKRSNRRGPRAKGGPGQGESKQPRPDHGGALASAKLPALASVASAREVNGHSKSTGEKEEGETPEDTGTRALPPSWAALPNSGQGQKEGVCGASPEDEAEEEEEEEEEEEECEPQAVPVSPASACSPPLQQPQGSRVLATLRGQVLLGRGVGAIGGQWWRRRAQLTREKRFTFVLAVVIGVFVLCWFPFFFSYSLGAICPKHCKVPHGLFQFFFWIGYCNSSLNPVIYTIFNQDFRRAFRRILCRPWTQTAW
Protocol: (§1) (a) Adrenergic α2A Receptor: • Reference: S. Uhlen et al. J. Pharmacol. Exp. Ther., 271:1558-1565 (1994) • Source: Human recombinant insect Sf9 cells • Ligand: 1 nM [^3H] […] J. Pharmacol., 99:803-809, (1990) • Source: Wistar rat cerebral cortex • Ligand: 2 nM [3H]

[1] = tested on: Imidazoline I2 (Central) Receptor; experiment: Imidazoline I2 (central) receptor radioligand binding; parameters: species or system Wistar rat; conditions: 10 μM; 2 nM [3H] Idazoxan
Protocol: as §1

[2] = target: T3, Serotonin Transporter (SERT) (Homo sapiens, UniProt P31645); experiment: Serotonin transporter (SERT) radioligand binding; conditions: for pIC50 / Percentage Inhibition of Specific Binding, SERT: 0.15 nM [125I] RTI-55; for pIC50: read-out: IC50 value (in parentheses), SERT; for Percentage Inhibition of Specific Binding, SERT: 10 μM
T3 construct: expressed in transfected cells; host or cells: HEK-293 cells
T3 sequence (P31645 whole entry): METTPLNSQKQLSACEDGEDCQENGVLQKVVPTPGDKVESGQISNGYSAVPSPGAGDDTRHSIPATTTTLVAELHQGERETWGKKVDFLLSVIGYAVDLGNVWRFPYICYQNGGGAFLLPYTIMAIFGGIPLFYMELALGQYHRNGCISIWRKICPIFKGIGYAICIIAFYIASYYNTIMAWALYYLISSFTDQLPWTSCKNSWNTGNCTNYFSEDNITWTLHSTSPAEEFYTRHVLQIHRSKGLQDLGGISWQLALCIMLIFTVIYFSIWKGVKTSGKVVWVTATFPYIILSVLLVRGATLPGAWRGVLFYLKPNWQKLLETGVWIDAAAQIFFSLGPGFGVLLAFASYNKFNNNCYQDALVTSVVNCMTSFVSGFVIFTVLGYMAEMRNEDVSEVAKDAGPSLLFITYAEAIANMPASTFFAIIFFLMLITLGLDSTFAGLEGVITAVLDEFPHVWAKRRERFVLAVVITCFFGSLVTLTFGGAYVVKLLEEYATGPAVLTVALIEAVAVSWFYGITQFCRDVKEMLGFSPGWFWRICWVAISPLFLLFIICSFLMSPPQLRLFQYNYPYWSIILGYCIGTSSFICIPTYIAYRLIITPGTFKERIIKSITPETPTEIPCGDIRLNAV
Protocol: as §1

Structure (SMILES)	affinity for VMAT1 (in words) (VMAT1)	pIC50 (VMAT1)	Percentage Inhibition of Specific Binding, α2B Receptor (Adrenergic α2B Receptor) [%]	Percentage Inhibition of Specific Binding, I2 Receptor [1] [%]	inhibition of SERT (in words) [2]	pIC50 [2]	Percentage Inhibition of Specific Binding, SERT [2] [%]
COc1cc2c(cc1OC)[C@H]1C[C@H](O)[C@@H](CC(C)C)CN1CC2 (single isomer, unassigned) [Isomer B, 3,11b-cis-dihydrotetrabenazine]	low affinity for VMAT-1	< 5.00	14	8	potent inhibitors	6.46	86
COc1cc2c(cc1OC)[C@H]1C[C@@H](O)[C@@H](CC(C)C)CN1CC2 (single isomer, unassigned) [Isomer C, 3,11b-cis-dihydrotetrabenazine]	low affinity for VMAT-1	< 5.00	−7	0	potent inhibitors	5.56	77
